Earlier results as cited in patent US20090239289A1, “Drain Foam Composition and Method of Using the Same” (priority 2008, published 2009).

CC(COc1ccc(Oc2ccccc2)cc1)Oc1ccccn1 (stereo not shown) [Nylar, 2-[1-methyl-2(4-phenoxyphenoxy)ethoxy]pyridine]
residual when used outdoors: about 30 days
